Data as given in patent publication US20240058347A1, “DOSAGES FOR HDAC TREATMENT WITH REDUCED SIDE EFFECTS” (VIRACTA THERAPEUTICS, INC., priority 2019, published 2024).
pIC50: −log10 of the molar value. Like-named read-outs stand apart in the source and are kept apart here.

Legend:
HDAC1 = HDAC1 (Homo sapiens, UniProt Q13547); test: in vitro HDAC inhibition assay (fluorescence), HDAC1; format: biochemical
Description: (§1) Briefly, all of the compounds are dissolved in DMSO. A series of dilutions of the compounds were prepared with 10% DMSO in HDAC assay buffer and 5 μl of the dilution was added to a 50 μl reaction so that the final concentration of DMSO is 1% in all of reactions. The compounds were pre-incubated in duplicate at RT for 1 hour in a mixture containing HDAC assay buffer, 5 μg BSA, HDAC enzyme (see Table 7) and a the particular HDACi. After 1 hour, the enzymatic reactions were initiated by the addition of HDAC substrate (BPS Bioscience) to a final concentration of 10 μM or 2 μM. The enzymatic reaction proceeded for 30 minutes at 37° C.
(§2) HDAC activity assays were performed in duplicates at each concentration. The fluorescent intensity data were analyzed using the computer software, Graphpad Prism. In the absence of the compound, the fluorescent intensity (Ft) in each data set was defined as 100% activity. In the absence of HDAC, the fluorescent intensity (Fb) in each data set was defined as 0% activity. The percent activity in the presence of each compound was calculated according to the following equation: % activity=(F−Fb)/(Ft−Fb), where F=the fluorescent intensity in the presence of the compound. […]

HDAC4 = HDAC4 (Homo sapiens, UniProt P56524); test: in vitro HDAC inhibition assay (fluorescence), HDAC4; format: biochemical; conditions: HDAC4
Description: as §1, §2

HDAC5 = HDAC5 (Homo sapiens, UniProt Q9UQL6); test: in vitro HDAC inhibition assay (fluorescence), HDAC5; format: biochemical
Description: as §1, §2

HDAC7 = target: T1, HDAC7 (Homo sapiens, UniProt Q8WUI4); test: in vitro HDAC inhibition assay (fluorescence), HDAC7; format: biochemical; conditions: HDAC7
T1 sequence (Q8WUI4 1-952): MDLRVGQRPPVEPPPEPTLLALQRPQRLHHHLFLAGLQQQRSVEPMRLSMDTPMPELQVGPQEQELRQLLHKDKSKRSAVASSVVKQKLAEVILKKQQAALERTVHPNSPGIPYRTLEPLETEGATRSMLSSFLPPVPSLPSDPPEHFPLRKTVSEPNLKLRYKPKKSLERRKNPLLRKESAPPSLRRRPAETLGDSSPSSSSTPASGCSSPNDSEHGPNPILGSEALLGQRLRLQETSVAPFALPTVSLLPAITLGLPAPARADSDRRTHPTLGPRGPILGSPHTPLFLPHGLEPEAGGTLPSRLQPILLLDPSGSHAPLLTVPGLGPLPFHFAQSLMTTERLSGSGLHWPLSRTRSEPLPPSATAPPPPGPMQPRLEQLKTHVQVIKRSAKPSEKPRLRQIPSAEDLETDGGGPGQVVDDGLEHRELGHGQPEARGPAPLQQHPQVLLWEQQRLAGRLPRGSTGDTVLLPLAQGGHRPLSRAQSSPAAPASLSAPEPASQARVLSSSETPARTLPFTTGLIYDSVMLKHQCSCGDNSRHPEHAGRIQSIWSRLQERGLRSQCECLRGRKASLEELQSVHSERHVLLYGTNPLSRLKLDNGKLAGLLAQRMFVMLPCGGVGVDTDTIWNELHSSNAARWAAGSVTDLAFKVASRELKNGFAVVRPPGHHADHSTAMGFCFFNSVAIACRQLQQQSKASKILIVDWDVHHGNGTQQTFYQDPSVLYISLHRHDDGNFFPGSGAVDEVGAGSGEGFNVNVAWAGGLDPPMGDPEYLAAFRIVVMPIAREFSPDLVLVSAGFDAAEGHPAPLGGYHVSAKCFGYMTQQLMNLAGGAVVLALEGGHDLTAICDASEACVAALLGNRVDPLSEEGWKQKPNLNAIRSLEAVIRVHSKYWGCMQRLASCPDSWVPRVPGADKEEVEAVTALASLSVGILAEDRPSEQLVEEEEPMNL
Description: as §1, §2

HDAC9 = HDAC9 (Homo sapiens, UniProt Q9UKV0); test: in vitro HDAC inhibition assay (fluorescence), HDAC9; format: biochemical; conditions: HDAC9
Description: as §1, §2

HDAC11 = target: T2, HDAC11 (Homo sapiens, UniProt Q96DB2); test: in vitro HDAC inhibition assay (fluorescence), HDAC11; format: biochemical; conditions: HDAC11
T2 sequence (Q96DB2 1-347): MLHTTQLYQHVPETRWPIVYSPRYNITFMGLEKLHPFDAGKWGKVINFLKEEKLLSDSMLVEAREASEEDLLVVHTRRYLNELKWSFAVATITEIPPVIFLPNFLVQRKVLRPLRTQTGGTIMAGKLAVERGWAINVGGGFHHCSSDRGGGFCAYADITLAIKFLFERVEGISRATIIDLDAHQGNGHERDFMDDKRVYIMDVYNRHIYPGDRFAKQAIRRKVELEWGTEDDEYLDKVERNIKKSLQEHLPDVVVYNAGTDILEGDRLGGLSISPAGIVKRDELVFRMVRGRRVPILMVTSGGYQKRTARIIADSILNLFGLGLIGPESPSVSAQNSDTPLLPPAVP
Description: as §1, §2

[1] = Single dose pharmacokinetics of VRx-3996 in patients, serum, cycle 1 day 1; format: in vivo, humans; conditions: human, po
Description: Patients enrolled in study were administered oral nanatinostat and valganciclovir at predefined doses. […] 8.1 software.

[2] = test system: Histone 3 acetylation in peripheral blood mononuclear cells; test: H3 acetylation in peripheral blood mononuclear cells of healthy donors, flow cytometry; format: cell-based, humans; conditions: PBMC of healthy donors
Excerpt: Percentage of cells with H3 acetylation, as determined by flow cytometry, is shown.
Since H3 acetylation is a pharmacodynamic biomarker of Nstat activity, acetylation of H3 was examined in treated cells.

[3] = test system: P3HR1 Burkitt's lymphoma cells; test: Cell death (7AAD staining) of EBV infected cell line, Nstat 3 days then ganciclovir 3 days; format: cell-based; conditions: FIG. 4
Description: All test conditions were run in triplicate. Cell death was measured by 7AAD staining.

Chain of HDAC4 (P56524 whole entry): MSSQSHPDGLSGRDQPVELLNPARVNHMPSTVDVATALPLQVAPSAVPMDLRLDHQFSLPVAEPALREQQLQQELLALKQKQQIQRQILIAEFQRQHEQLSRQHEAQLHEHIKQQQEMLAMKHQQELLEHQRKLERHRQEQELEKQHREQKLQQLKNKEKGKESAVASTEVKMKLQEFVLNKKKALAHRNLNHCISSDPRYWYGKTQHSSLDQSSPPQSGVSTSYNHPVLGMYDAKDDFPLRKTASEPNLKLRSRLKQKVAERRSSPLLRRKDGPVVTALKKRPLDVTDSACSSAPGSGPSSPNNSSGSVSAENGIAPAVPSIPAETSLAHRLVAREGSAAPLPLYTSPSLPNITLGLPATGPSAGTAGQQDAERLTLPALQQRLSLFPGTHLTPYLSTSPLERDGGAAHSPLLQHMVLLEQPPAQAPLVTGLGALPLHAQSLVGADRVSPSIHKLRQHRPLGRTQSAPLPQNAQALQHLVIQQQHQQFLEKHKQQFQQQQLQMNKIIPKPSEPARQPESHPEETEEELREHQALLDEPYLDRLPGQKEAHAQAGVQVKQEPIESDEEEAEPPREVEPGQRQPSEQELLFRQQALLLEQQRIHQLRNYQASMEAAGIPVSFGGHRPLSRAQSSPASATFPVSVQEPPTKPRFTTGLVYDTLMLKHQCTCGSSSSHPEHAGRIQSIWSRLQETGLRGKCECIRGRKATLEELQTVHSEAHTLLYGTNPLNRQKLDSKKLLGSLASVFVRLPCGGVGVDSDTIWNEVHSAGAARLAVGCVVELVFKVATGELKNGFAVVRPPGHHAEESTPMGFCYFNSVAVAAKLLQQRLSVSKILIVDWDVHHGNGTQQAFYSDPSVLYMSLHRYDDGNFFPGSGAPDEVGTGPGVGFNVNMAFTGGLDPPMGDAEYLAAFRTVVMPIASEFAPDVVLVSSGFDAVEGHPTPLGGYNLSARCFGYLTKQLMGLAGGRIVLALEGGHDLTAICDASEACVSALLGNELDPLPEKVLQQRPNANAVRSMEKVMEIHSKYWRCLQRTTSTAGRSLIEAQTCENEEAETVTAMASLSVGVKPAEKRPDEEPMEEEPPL
Chain of HDAC5 (Q9UQL6 whole entry): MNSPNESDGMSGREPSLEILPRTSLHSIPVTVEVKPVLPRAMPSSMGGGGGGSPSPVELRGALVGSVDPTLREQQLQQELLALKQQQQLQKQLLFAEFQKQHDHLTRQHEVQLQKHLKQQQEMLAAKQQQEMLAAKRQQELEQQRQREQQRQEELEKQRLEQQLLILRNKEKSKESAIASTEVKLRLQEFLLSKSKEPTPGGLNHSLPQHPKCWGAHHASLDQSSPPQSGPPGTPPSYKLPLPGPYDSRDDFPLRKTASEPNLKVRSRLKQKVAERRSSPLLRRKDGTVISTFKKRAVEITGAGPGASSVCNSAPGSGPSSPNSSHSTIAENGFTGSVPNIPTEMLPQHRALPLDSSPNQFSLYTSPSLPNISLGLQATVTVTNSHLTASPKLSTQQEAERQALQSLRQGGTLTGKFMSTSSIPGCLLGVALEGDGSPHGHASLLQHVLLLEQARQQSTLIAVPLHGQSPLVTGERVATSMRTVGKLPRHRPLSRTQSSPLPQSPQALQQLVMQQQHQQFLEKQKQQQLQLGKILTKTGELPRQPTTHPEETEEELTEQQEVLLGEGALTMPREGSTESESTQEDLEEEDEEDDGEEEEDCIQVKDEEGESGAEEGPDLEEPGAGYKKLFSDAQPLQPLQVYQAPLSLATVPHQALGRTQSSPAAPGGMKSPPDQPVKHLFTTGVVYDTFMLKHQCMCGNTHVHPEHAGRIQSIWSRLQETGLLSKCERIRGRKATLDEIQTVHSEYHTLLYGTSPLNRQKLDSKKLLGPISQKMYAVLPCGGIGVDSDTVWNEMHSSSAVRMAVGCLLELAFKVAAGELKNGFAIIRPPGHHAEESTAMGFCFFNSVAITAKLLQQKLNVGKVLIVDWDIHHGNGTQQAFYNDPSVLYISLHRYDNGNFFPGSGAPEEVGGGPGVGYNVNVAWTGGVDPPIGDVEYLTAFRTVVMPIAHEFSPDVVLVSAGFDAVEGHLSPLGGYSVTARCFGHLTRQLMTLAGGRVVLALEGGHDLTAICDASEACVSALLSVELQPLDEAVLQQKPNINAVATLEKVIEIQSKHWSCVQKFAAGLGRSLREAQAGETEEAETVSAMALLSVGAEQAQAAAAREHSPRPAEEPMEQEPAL
Chain of HDAC1 (Q13547 whole entry): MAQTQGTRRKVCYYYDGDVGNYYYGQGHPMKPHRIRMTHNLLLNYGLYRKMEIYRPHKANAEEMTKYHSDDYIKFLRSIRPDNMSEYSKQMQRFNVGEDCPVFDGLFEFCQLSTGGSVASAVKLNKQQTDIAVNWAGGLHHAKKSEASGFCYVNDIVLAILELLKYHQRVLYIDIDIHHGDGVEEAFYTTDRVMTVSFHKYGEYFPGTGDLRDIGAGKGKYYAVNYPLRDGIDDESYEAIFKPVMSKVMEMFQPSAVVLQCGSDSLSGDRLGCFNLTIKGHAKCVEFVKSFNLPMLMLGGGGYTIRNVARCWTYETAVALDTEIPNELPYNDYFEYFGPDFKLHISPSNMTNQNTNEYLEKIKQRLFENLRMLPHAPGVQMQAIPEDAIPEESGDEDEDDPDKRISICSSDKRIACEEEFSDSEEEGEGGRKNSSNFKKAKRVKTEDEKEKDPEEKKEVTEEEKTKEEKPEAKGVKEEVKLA
Chain of HDAC9 (Q9UKV0 whole entry): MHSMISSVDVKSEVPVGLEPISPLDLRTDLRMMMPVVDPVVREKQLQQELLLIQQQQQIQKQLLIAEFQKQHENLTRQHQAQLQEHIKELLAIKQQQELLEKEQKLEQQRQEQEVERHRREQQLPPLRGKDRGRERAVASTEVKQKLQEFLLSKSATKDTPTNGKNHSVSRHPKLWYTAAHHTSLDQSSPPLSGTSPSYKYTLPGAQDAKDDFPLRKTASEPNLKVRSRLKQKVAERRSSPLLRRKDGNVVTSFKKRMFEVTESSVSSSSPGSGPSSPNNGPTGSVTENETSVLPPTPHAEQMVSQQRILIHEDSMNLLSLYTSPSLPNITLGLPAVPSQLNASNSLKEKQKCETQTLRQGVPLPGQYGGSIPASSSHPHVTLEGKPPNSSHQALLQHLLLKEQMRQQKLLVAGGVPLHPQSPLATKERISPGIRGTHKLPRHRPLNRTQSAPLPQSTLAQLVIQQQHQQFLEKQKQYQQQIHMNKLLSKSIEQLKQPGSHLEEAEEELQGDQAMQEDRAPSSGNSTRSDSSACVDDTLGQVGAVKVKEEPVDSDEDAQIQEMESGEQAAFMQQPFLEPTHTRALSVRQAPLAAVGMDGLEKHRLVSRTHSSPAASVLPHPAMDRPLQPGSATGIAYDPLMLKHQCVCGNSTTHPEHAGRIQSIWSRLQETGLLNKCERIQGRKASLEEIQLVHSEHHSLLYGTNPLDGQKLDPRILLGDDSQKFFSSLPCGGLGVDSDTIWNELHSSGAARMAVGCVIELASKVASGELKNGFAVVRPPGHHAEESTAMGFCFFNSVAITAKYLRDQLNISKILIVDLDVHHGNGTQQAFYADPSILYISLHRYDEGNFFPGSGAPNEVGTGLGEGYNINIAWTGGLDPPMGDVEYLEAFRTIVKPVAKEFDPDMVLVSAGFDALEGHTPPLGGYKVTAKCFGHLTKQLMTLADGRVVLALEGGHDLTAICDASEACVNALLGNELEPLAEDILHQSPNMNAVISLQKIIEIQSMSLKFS

With O=C(NO)c1cnc(N2CC3C(C2)C3NCc2ccc3cc(F)ccc3n2)nc1 (centres unmarked) [Nstat, 2-(6-{[(6-Fluoroquinolin-2-yl)methyl]amino}-3-azabicyclo[3.1.0]hex-3-yl)-N-hydroxypyrimidine-5-carboxamide] the pIC50 (HDAC1) was 8.44, the pIC50 (HDAC4) was 6.00 and the pIC50 (HDAC5) was 6.41. The pIC50 (HDAC7) was 5.80, the pIC50 (HDAC9) was 6.36 and the pIC50 (HDAC11) was 5.55. It also gave an AUC ([1]; Treatment A = 5 mg VRx-3996 p.o. and 450 mg Valganciclovir p.o., single dose, N=1, read-out: AUC, geometric mean) of 117 ng·h/mL, a half-life ([1]; Treatment A = 5 mg VRx-3996 p.o. and 450 mg Valganciclovir p.o., single dose, N=1, read-out: Half-Life, geometric mean (converted)) of 2.18 h and an AUC(0-t) ([1]; Treatment A = 5 mg VRx-3996 p.o. and 450 mg Valganciclovir p.o., single dose, N=4, read-out: AUClast, geometric mean) of 40.5 ng·h/mL. It also gave a Cmax ([1]; Treatment A = 5 mg VRx-3996 p.o. and 450 mg Valganciclovir p.o., single dose, N=4, read-out: Cmax, geometric mean) of 18.5 ng/mL, a Tmax ([1]; Treatment A = 5 mg VRx-3996 p.o. and 450 mg Valganciclovir p.o., single dose, N=4, read-out: Tmax, median (range)) of 3 h and an AUC ([1]; Treatment B = 10 mg VRx-3996 p.o. and 450 mg Valganciclovir p.o., single dose, N=1, read-out: AUC, geometric mean) of 317 ng·h/mL. The half-life ([1]; Treatment B = 10 mg VRx-3996 p.o. and 450 mg Valganciclovir p.o., single dose, N=1, read-out: Half-Life, geometric mean (converted)) was 1.17 h, the AUC(0-t) ([1]; Treatment B = 10 mg VRx-3996 p.o. and 450 mg Valganciclovir p.o., single dose, N=9, read-out: AUClast, geometric mean) was 165 ng·h/mL and the Cmax ([1]; Treatment B = 10 mg VRx-3996 p.o. and 450 mg Valganciclovir p.o., single dose, N=9, read-out: Cmax, geometric mean) was 62.6 ng/mL. It also gave a Tmax ([1]; Treatment B = 10 mg VRx-3996 p.o. and 450 mg Valganciclovir p.o., single dose, N=9, read-out: Tmax, median (range)) of 2 h, an AUC ([1]; Treatment C = 10 mg VRx-3996 p.o. and 900 mg Valganciclovir p.o., single dose, N=4, read-out: AUC, geometric mean) of 322 ng·h/mL and a half-life ([1]; Treatment C = 10 mg VRx-3996 p.o. and 900 mg Valganciclovir p.o., single dose, N=4, read-out: Half-Life, geometric mean (converted)) of 1.67 h. For the same compound, the AUC(0-t) ([1]; Treatment C = 10 mg VRx-3996 p.o. and 900 mg Valganciclovir p.o., single dose, N=6, read-out: AUClast, geometric mean) was 227 ng·h/mL, the Cmax ([1]; Treatment C = 10 mg VRx-3996 p.o. and 900 mg Valganciclovir p.o., single dose, N=6, read-out: Cmax, geometric mean) was 78.9 ng/mL and the Tmax ([1]; Treatment C = 10 mg VRx-3996 p.o. and 900 mg Valganciclovir p.o., single dose, N=6, read-out: Tmax, median (range)) was 1 h. For the same compound, the half-life ([1]; humans, oral nanatinostat with valganciclovir, read-out: T1/2 (converted)) was about 2 h, the “potency in inducing elevated levels of Histone 3 acetylation” value ([2]; even at a dose of 100 nM, FIG. 2) was “much more potent than entinostat” and the “duration of effect on H3 acetylation (time-course)” value ([2]; even at doses down to 10 nM, FIG. 3) was “long-lasting”. For the same compound, the “increase of cytotoxic activity when combined with Ganciclovir” value ([3]; Nstat 3 days, wash, ganciclovir 3 days) was about 40% and the “increased cytotoxicity with ganciclovir after Nstat removal” value ([3]; after 3 days of washout) was “seen even after Nstat removal”.
